Our source for the EC50, IC50 and outcome values is PubChem BioAssay AID179 (DTP/NCI, 2004).

Several values for one entry are separate records, joined by “and”; a condition that tells them apart may be missing. Equal values may be shown once. Activity calls are given as the source filed them.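 The calls were made as follows: active = compounds giving half or more protection of infected cells from virus-caused growth loss, again on retest; inactive = the rest.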

As a reminder, the EC50 is the concentration that produces a half-maximal response. Usually IC50 stands for the concentration that inhibits the measured activity by half.

For this test, the system named is CEM cells HIV-1 protection, formazan growth assay. Put plainly: NCI AIDS Antiviral Assay. The conditions noted are these: for IC50: measured here: growth of uninfected CEM cells. In short, it runs like this: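 Steps: treat uninfected and HIV-1-infected human CEM cells at five drug levels; quantify growth by soluble formazan; retest any compound reaching 50% protection; classify actives from the retest.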

Turning to `CC(C)(C)OC(=O)N(CCCCNC(=O)C(F)(F)F)CCCNC(=O)C(F)(F)F`, the EC50 was above 200 µM and the 50% inhibitory concentration (IC50) was above 200 µM.
On to `COC(=O)c1ccc(CSc2ccc(N)cc2)cc1`, for which the result was inactive.
For `c1nc2nc3c(cn2n1)CCCCC3`, the EC50 is above 200 µM and the 50% inhibitory concentration (IC50) is above 200 µM.
As to `N/N=C(\c1nc2ccc(Cl)cc2[nH]c1=O)C(O)c1ccc(Cl)c(Cl)c1` (stereo not drawn), the EC50 was above 245 µM and the IC50 is 20.4 µM.
Taken in the same sequence, the figures for `COC(OC)C1OC(CO)C(n2cc(F)c(=O)[nH]c2=O)C1O` (stereo not drawn) were above 200 µM and above 200 µM.
Turning to `NC(=O)SCC(=O)NNc1ccccc1`, the EC50 was above 200 µM and the concentration for half-maximal inhibition (IC50) turned out to be 4.47 µM.
In the case of `O=c1[nH]c(Nc2cccc(CC(F)(F)F)c2)nc2nc[nH]c12`, the EC50 was above 200 µM and the IC50 came out at 110 µM.
In the same order, the values of `COC(=O)C12C3C4C1C1C2C3C41C(=O)NC(C)(C)CC(=O)O` (stereo not drawn) are above 200 µM and above 200 µM.
In the same order, the values of `CCN(CC)C(=O)N[C@@H](Cc1ccccc1)C(=O)NC` are above 200 µM and above 200 µM.
In the same order, the values of `S=c1[nH]c(=S)c2cc(Sc3ccc4[nH]c(=S)[nH]c(=S)c4c3)ccc2[nH]1` are above 200 µM and above 200 µM.
Take `CCCCCC(=O)OCCOCCOCCOCCOCCOCc1ccccc1`: the result was inactive.
As to `Cc1cc(N(CCC#N)CCC#N)ccc1/C=C(\NC(=O)/C=C/c1ccccc1)C(=O)Nc1ccccc1Cl`, the result was inactive.
Same read-out and setting: the entry for `Oc1ccc2c(c1)OCC(O)(c1ccccc1O)C2` (stereo not drawn) is “inactive”.
Turning to `CCOC(=O)Cc1nc2cc(F)c(F)cc2[nH]c1=O`, the EC50 was above 200 µM and the IC50 is above 200 µM.
As for `CC(C(=O)O)N(N=O)c1ccccc1` (stereo not drawn), the EC50 is above 676 µM and the IC50 is above 676 µM.
Consider `Nc1nc(Cl)c(N)c(NCC2(CO)CC(CCCc3ccccc3)C2)n1` (stereo not drawn), for which the EC50 was above 0.2 µM and the IC50 was 0.186 µM.
With `CCOC(=O)C[P+](c1cccc(F)c1)(c1cccc(F)c1)c1cccc(F)c1`, the EC50 was above 200 µM and the half-maximal inhibitory concentration (IC50) is 166 µM.
In the same order, the values of `CC(Nc1ccc(Cl)cc1)c1ccncc1` (stereo not drawn) are above 200 µM and 72.4 µM.
Taken in the same sequence, the figures for `CCOC(OCC)c1ccc(C(F)(F)F)cc1.[C-]#[O+].[C-]#[O+].[C-]#[O+].[Cr]` were above 20 µM and 3.02 µM.
With `O=C(CCn1[nH]c(=O)c(Cl)c(Cl)c1=O)NNC(=O)C[n+]1ccccc1`, the EC50 was above 589 µM and the concentration for half-maximal inhibition (IC50) was above 589 µM.
As for `COc1ccc(Nc2nc(NS(=O)(=O)c3cc(C)c(Cl)cc3S)n[nH]2)cc1`, the concentration giving a half-maximal response (EC50) is 178 µM and the 50% inhibitory concentration (IC50) worked out at 257 µM.
Regarding `Clc1ccc(/C=N/N=C(N/N=C/c2ccc(Cl)cc2Cl)N/N=C/c2ccc(Cl)cc2Cl)c(Cl)c1`, the EC50 was above 100 µM and the concentration for half-maximal inhibition (IC50) was above 100 µM.
As for `COc1ccc(NC(=S)N/N=C/c2c(C)n(C)n(-c3ccccc3)c2=O)cc1`, the EC50 is above 200 µM and the IC50 was 115 µM.
Taken in the same sequence, the figures for `Nc1nc(Cl)c2ncn(C3C=CC(O)CC3)c2n1` (stereo not drawn) were above 933 µM and 52.5 µM.
For the molecule `CC1(C)CCC(C)(C)c2cc(C(=O)Nc3ccc(C(=O)O)cc3)ccc21`, the outcome was inactive and the half-inhibitory concentration (IC50) was 115 µM.
On to `O=C(CC(C(=O)c1ccsc1)c1cccs1)c1ccccc1` (stereo not drawn), for which the EC50 was above 200 µM and the concentration for half-maximal inhibition (IC50) worked out at 49 µM.
`Cc1ccccc1-c1nc2ccc(N)nc2nc1N`: the outcome was inactive.
Take `O=C(CCc1nnc2s/c(=C\c3ccccc3)c(=O)n12)Nc1cc(Cl)ccc1Cl`: the EC50 is above 11.7 µM and the half-maximal inhibitory concentration (IC50) was above 11.7 µM.
Take `CCCCCCCCCCC(=O)CCCCCCC(=O)O`: the outcome was inactive.
On the same count and under the same terms, the entry for `ClC[Si]12OCCN(CCO1)CCO2` is “inactive”.
`Cc1nc(-n2nc(-c3ccccc3)cc2-c2ccccc2)sc1C(=O)/C=C/c1ccc(Cl)c(Cl)c1`: the EC50 is above 26.3 µM and the 50% inhibitory concentration (IC50) was above 26.3 µM.
In the case of `O=C(O)C1CC2C=CCC(C2)C1` (stereo not drawn), the outcome was inactive.
Regarding `O=C1C2=C(CC3=C(C2)CS(=O)(=O)C3)C(=O)C2=C1CC1=C(C2)CS(=O)(=O)C1`, the EC50 was above 200 µM and the half-maximal inhibitory concentration (IC50) is 6.03 µM.
As for `CC(=O)C1C(=O)C(=O)N(c2ccc(Cl)cc2C)C1=O` (stereo not drawn), the EC50 is above 93.3 µM and the IC50 is above 93.3 µM.
For `Cc1ccc(S(=O)(=O)CC2(Br)Cc3ccccc3C2=O)cc1` (stereo not drawn), the EC50 is above 200 µM and the IC50 was 5.75 µM.
Take `NCCCCNOCCCN`: the EC50 was above 200 µM and the half-maximal inhibitory concentration (IC50) was above 200 µM.
Regarding `CCN(CC)c1nnc(CCCCCCCCc2nnc(N(CC)CC)o2)o1`, the EC50 was above 200 µM and the IC50 is above 200 µM.
Regarding `O=S(c1ccc(Cl)cc1)S(=O)c1ccc(Cl)cc1` (stereo not drawn), the EC50 was above 22.4 µM and the IC50 was determined as 18.2 µM.
In the case of `CN(C)CCCOCCn1c2c(c3ccccc31)CCCC2`, the EC50 was above 200 µM and the IC50 worked out at 32.4 µM.
In the same order, the values of `COc1cc(Br)c(C=Nc2cccc3ccc(OS(=O)(=O)c4ccc([N+](=O)[O-])cc4)cc23)cc1OC` are above 17.4 µM and above 17.4 µM.
Take `COc1cccc(C2c3cc4c(cc3OC(NNc3ccccc3)C2C)OCO4)c1OC` (stereo not drawn): the EC50 was above 200 µM and the 50% inhibitory concentration (IC50) worked out at 8.13 µM.
Taken in the same sequence, the figures for `COC1(OC)CCCCCCCCC(OC)(OC)CCCCCCCC1` were above 200 µM and above 200 µM.
In the case of `COc1cc2c3cc1Oc1c(OC)c(OC)cc4c1C(Cc1ccc(O)c(c1)Oc1ccc(cc1)CC3N(C)CC2)N(C)CC4` (stereo not drawn), the result was inactive.
Regarding `CC1(C)OC2C(COCc3ccccc3)=CC(n3ccc(=O)[nH]c3=O)C2O1` (stereo not drawn), the EC50 is above 200 µM and the IC50 was above 200 µM.
On to `COc1cccc(/C=C(/C(C)=O)C(=O)c2ccccc2)c1`, for which the outcome was inactive.
With `CC(C)c1cc2c(O)c(c1)Cc1cc(C(C)C)cc(c1O)Cc1cc(C(C)C)cc(c1O)Cc1cc(C(C)C)cc(c1O)C2`, the EC50 is above 6.31 µM and the IC50 is above 6.31 µM.
For the molecule `CCc1n[nH]c(=O)n1CCO`, the outcome was inactive.
As for `CCCCCCCCCCCCCCCCCCNC(=S)/N=C\C(C(=O)Nc1ccccc1C)=C(/C)O`, the EC50 is above 200 µM and the IC50 was determined as 115 µM.
For the molecule `CCO/C=N/c1[nH]c(C)c(Cc2ccccc2)c1C#N`, the EC50 was above 50.1 µM and the concentration for half-maximal inhibition (IC50) is above 50.1 µM.
As to `CC(=O)NCCCCN(CCCNC(C)=O)C(=O)CNS(=O)(=O)c1cccc2c(N(C)C)cccc12`, the EC50 is above 200 µM and the IC50 is above 200 µM.
In the case of `CCc1c(CNC2=NCCN2)c(CC)c(CNC2=NCCN2)c(CC)c1CNC1=NCCN1`, the EC50 is above 200 µM and the concentration for half-maximal inhibition (IC50) is above 200 µM.
In the case of `CCCCCCCC(=O)N1C2CC3CCC2(CS1(=O)=O)C3(C)C` (stereo not drawn), the EC50 is above 200 µM and the half-inhibitory concentration (IC50) is 19.1 µM.
In the same order, the values of `N=C1/C(=C/c2ccccc2)C(=O)N=C2SC=NN12` are above 200 µM and above 200 µM.
Regarding `COc1ccc(-c2[nH]c(=O)n(C3OC(CO)C(O)C(O)C3O)c(=O)c2C#N)cc1` (stereo not drawn), the EC50 was > 200 µM and 186 µM; the IC50 is above 200 µM.
`Cc1ccc(S(=O)(=O)NC(=O)Nc2nc(Cl)cc(Cl)n2)cc1`: the EC50 is above 100 µM and the half-inhibitory concentration (IC50) came to 87.1 µM.
For the molecule `O=C(CC(=O)Nc1ccccc1O)Nc1ccccc1O`, the EC50 is above 447 µM and the IC50 was found to be 22.4 µM.
Regarding `COc1cc(/C=C\c2ccc(SC)cc2)cc(OC)c1OC`, the EC50 is above 42.7 µM and the IC50 was determined as 0.0724 µM.
In the same order, the values of `CC(C)=C1C2CCC1C(CO)C2CO` (stereo not drawn) are above 457 µM and above 457 µM.
With `COc1cc(Br)c(OC)c2c(OC)cc(C)cc12`, the EC50 was above 200 µM and the IC50 stood at 35.5 µM.
Taken in the same sequence, the figures for `COCC[N+](CCNC(=O)c1cccc2c(N)c3cccc(C)c3nc12)(CCOC)Cc1ccc([N+](=O)[O-])cc1` were above 200 µM and 13.2 µM.
As to `O=S(=O)(C1=CC(S(=O)(=O)c2ccccc2)CN(Cc2ccccc2)C1c1cccc2ccccc12)c1ccccc1` (stereo not drawn), the outcome was inactive.
`Cc1cc(N(CCC#N)CCC#N)ccc1/C=C(\NC(=O)/C=C/c1ccccc1)NC(=O)Nc1ccc(Cl)cc1`: the result was inactive.
Take `O=c1c2ccc(Cl)cc2nc2n1OCC2`: the EC50 is above 132 µM and the concentration for half-maximal inhibition (IC50) was above 132 µM.
Take `NC1=CN2c3ccccc3N(CC(=O)N3CCOCC3)C2C=C1` (stereo not drawn): the EC50 is above 200 µM and the IC50 is above 200 µM.
On to `C=CCCC1CCCNC1=S` (stereo not drawn), for which the EC50 was above 776 µM and the IC50 worked out at 708 µM.
In the same order, the values of `COc1cc(C(=O)n2c(=O)oc(=O)c3cc([N+](=O)[O-])ccc32)cc(OC)c1OC` are above 200 µM and above 200 µM.
Take `O=C(O)Cc1ccc(-n2nnc3c(=O)[nH][nH]c(=O)c32)cc1`: the EC50 was above 200 µM and the IC50 was above 200 µM.
Consider `COc1cccc(/C=C2\S/C(=N/Nc3nc(-c4ccc([N+](=O)[O-])cc4)cs3)NC2=O)c1O`, for which the EC50 was above 200 µM and the half-inhibitory concentration (IC50) was 29.5 µM.
With `COc1cc2c(c(OC)c1OC)C(=O)[C@@H](O)[C@H]2NC(=O)CCCCl`, the EC50 is above 200 µM and the half-maximal inhibitory concentration (IC50) is above 200 µM.
As to `O=C1c2cccnc2S(=O)(=O)N1c1ccc(Oc2ccccc2)cc1`, the EC50 was above 200 µM and the IC50 is above 200 µM.
Regarding `O=C(O)CCC(CCC(=O)O)(C(=O)O)c1ccccc1`, the EC50 is above 5620 µM and the IC50 worked out at 4470 µM.
Consider `CN(C)c1cc2c3ccccc3ccc2c2ccccc12`, for which the EC50 is above 7.41 µM and the IC50 is above 7.41 µM.
In the case of `c1ccc2nn(C3CCCCO3)nc2c1` (stereo not drawn), the EC50 is above 200 µM and the concentration for half-maximal inhibition (IC50) is above 200 µM.
`Cn1c(=O)c2nc(-c3ccccc3)oc2n(C)c1=O`: the result was inactive.
In the case of `O=C1CCCC2=C(N1)C(=O)C=CC2=O`, the EC50 was above 955 µM and the IC50 stood at 8.71 µM.
`CCc1cccc(CC)c1NC(=O)C(=O)Cc1nc2ccccc2o1`: the EC50 was above 537 µM and the half-maximal inhibitory concentration (IC50) was above 537 µM.
